Results reported in publication PMC6571965, “Importance of the Proximity and Orientation of Ligand-Linkage to the Design of Cinnamate-GW9662 Hybrid Compounds as Covalent PPARγ Agonists” (Molecules, 2019).
“Also recorded” adds a separate entry of the source. Read-outs that look alike come from different tables or passages of the source.

Legend:
[1] = molecular target: T1, human PPARγ LBD (Homo sapiens, UniProt P37231); test: PPARγ reporter assay (GAL4 DNA-binding domain/PPARγ LBD chimera, pUAS-tk-Luc luciferase) in HepG2 cells; type: cell-based; design: expressed in transfected cells; host or cells: HepG2; settings: for PPARγ agonist activity (in words) / EC50: HepG2 cells, pGal4-human PPARγLBD, 6 h treatment; for EC50: mean ± SD, read-out: EC50 (PPARγ agonist activity); for fold more potent than previously synthesized compound 3: PPARγ agonist activity, compared with 3
T1 sequence (P37231 238-503 limits assumed): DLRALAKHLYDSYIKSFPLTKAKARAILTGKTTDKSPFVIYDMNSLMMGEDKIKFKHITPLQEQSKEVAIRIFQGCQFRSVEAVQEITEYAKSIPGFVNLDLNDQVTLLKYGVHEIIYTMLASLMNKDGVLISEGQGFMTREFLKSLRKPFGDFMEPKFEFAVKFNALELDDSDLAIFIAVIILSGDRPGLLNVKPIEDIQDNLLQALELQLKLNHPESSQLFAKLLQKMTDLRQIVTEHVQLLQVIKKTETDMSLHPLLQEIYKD
Protocol: PPARγ agonist activity was assessed by expression of a GAL4 DNA-binding domain/PPARγ LBD chimera protein using the plasmid pGAL4- PPARγ LBD and the luciferase reporter plasmid pUAS-tk-Luc containing the target sequence of GAL4 [20]. […] This supports our hypothesis that close proximity between the two fragments contributes to the improvement of binding affinity.
The PPARγ reporter assay was carried out as previously reported with slight modifications. pGal4-human PPARγLBD, pUAS-tk-luc and Renilla luciferase transfection control vector (pGL4.74, Promega, Madison, WI, USA) were transfected into HepG2 cells using Hily-max (Dojindo, Kumamoto, Japan) and PPARγ agonist activity was determined from the luciferase activity using the Dual-Luciferase Reporter Assay System (Promega) according to the manufacturer’s protocol.
Figure 2 Transactivation potentials of PPARγ by 4a, b, c, d, e, and 16. The luciferase reporter assay was performed in HepG2 cells transiently cotransfected with pGal4-humanPPARγLBD plasmid, pUAS-tk-Luc reporter, and pGL4.74[hRluc/TK] (Promega). Firefly luciferase activities were normalized to Renilla luciferase activities. Vehicle control data are denoted as 1. […] All the results are presented as the mean ± SD (n = 3) of three independent experiments. * p < 0.001, compared with vehicle control.

[2] = molecular target: T2, recombinant PPARγ LBD (Cys285) (Homo sapiens, UniProt P37231); test: Rhodamine-maleimide assay for covalent modification of Cys285; type: binding; settings: PPARγ LBD 2 µM, 30 min incubation at room temperature
T2 construct: recombinant PPARγ LBD (2 µM) was mixed with various ligands; gift of Dr. Takuji Oyama (Yamanashi University)
T2 sequence (P37231 238-503 limits assumed): T1 sequence (P37231 238-503 limits assumed)
Excerpt: (§1) To assess the interactions between the receptor and the synthesized compounds, we initially validated the formation of a covalent bond with Cys285 by performing a rhodamine-maleimide assay. This assay can detect the presence of a covalent modification of Cys285 in the PPARγ LBD because it has only one cysteine residue in its sequences. […] To further confirm the covalent bonding of the synthesized compounds, we conducted proteolytic mapping studies via mass spectroscopy using 4a as a representative compound and 4b as a negative control. The complexes between recombinant PPARγ LBD and the test compounds were trypsinized and subjected to MALDI-TOF MS. Covalent binding of 4a (mass of 466.1 Da) to the PPARγ LBD is assumed to result in a mass change of 431.1 Da for the modified tryptic peptide. By comparison of the tryptic digests of PPARγ, with and without 4a, a candidate peptide containing the attachment site for 4a ([…], m/z 499.7492 Da) was detected by its mass shift to m/z 714.8080 Da (detected as double charged; Figure 3B).
Rhodamine-Maleimide assay was performed as previously described. Briefly, recombinant PPARγ LBD (2 µM) was mixed with various ligands at the indicated concentrations in 20 mM Tris-HCl, pH8.0, 150 mM NaCl, and 1 mM tris(2-carboxylethyl)phosphine (TCEP). The mixture was incubated for 30 min at room temperature. SDS was added to the reaction mixture to a final concentration of 0.5%, followed by rhodamine red C2 maleimide (Life Technologies, Carlsbad, CA, USA) at a final concentration of 1 mM. After incubation at room temperature for 30 min, samples were treated with SDS-PAGE sample buffer containing β-mercaptoethanol for 30 min at 55 °C and were separated by SDS-PAGE. Fluorescent signals were visualized using the LAS1000 plus image analyzer (Fujifilm, Tokyo, Japan).
. (B), (C) Detection of covalent binding of 4a to Cys285 in the PPARγ LBD by ESI-MS/MS analysis. Fragmentation pattern of peptide […] was obtained from the trypsin digest. The calculated y- and b-ions of this peptide with observed ions underlined and the native or modified peptides detected in chromatogram are shown.

[3] = molecular target: T3, human PPARγ LBD C285A mutant (Homo sapiens, UniProt P37231, C313A); test: Luciferase reporter gene assay with C285A mutant of pGal4-humanPPARγLBD in HepG2 cells; settings: 6 h, troglitazone 10 μM
T3 sequence (P37231 232-505 C313A): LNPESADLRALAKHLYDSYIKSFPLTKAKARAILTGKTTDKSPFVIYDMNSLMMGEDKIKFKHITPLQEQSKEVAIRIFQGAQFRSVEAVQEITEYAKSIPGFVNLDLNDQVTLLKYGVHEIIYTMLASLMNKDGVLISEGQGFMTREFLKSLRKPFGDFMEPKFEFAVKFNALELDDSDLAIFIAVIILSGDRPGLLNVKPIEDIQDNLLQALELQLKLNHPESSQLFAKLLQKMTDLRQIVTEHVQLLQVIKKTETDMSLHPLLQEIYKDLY
Excerpt: (§2) We first examined the relationship between covalent binding to the Cys285 residue and the agonist activity by a luciferase reporter gene assay using PPARγ mutants where the cysteine was substituted to an alanine (C285A). […] To examine this idea, we monitored the levels of luciferase activity upon withdrawal of the synthesized agonists.

[4] = molecular target: T1, human PPARγ LBD; test: Luciferase reporter assay after ligand withdrawal in HepG2 cells; settings: 6 h treatment (troglitazone 10 μM; 4a, 4c 100 nM), washed, 24 h after withdrawal
Excerpt: as §2

[5] = molecular target: T2, recombinant PPARγ LBD (Cys285); test: Proteolytic mapping by MS/MS of ligand modification of PPARγ LBD; type: binding; settings: PPARγ LBD 20 µM, ligand 40 µM, 30 min, trypsin digest
Excerpt: as §1
LC-MS/MS detection was performed as previously described. Briefly, purified recombinant PPARγ LBD (20 µM) was incubated with ligands (40 µM) in 20 mM Tris-HCl, pH8.0, 150 mM NaCl, and 1 mM TCEP for 30 min. […]
. […] The calculated y- and b-ions of this peptide with observed ions underlined and the native or modified peptides detected in chromatogram are shown.

[6] = molecular target: T1, human PPARγ LBD; design: expressed in transfected cells; host or cells: HepG2; method as in PMID 26414848; settings: previously synthesized compound; read-out: EC50 value (partial agonistic activity); cited from earlier work

Structure (SMILES)	PPARγ agonist activity (in words) [1]	fluorescence of rhodamine-labeled PPARγ LBD (covalent bond with Cys285) [2]	EC50 [1] [nM]	other results
CCOC(=O)/C=C/c1ccc(OCCc2ccc(NC(=O)c3cc([N+](=O)[O-])ccc3Cl)cc2)cc1 [Compound 16, (E)-Ethyl 3-(4-{2-[4-(2-chloro-5-nitrobenzamido)phenyl]ethoxy}phenyl)acrylate]	disappearance of activity; also recorded: exhibited no agonistic activity	showed the decrease of fluorescence	–	–
CCOC(=O)/C=C/c1ccc(Oc2cccc(NC(=O)c3cc([N+](=O)[O-])ccc3Cl)c2)cc1 [Compound 4a, (E)-Ethyl 3-{4-[3-(2-chloro-5-nitrobenzamido)phenoxy]phenyl}acrylate]	–	decrease of labeled PPARγ LBD was also found	5.13 ± 0.45	fold more potent than previously synthesized compound 3 [1]: about 3 fold; transactivation in the C285A mutant [3]: did not show the transactivation; luciferase transcription activity after withdrawal of ligand [4]: sustained transcription activity 24 h after withdrawal; covalent adduct with Cys285 detected by mass shift of tryptic peptide IFQGCQFR [5]: identified as the Cys285 residue
CCOC(=O)/C=C/c1ccc(Oc2cccc(NC(=O)c3cccc([N+](=O)[O-])c3)c2)cc1 [Compound 4b, (E)-Ethyl 3-{4-[3-(3-nitrobenzamido)phenoxy]phenyl}acrylate]	had no agonist activity	decrease of fluorescence was not observed	–	covalent adduct with Cys285 detected by mass shift of tryptic peptide IFQGCQFR [5]: these mass shifts were not exhibited
CCOC(=O)/C=C/c1ccc(Oc2ccccc2NC(=O)c2cc([N+](=O)[O-])ccc2Cl)cc1 [Compound 4c, (E)-Ethyl 3-{4-[2-(2-chloro-5-nitrobenzamido)phenoxy]phenyl}acrylate]	–	decrease of labeled PPARγ LBD was also found	4.11 ± 0.13	fold more potent than previously synthesized compound 3 [1]: about 3 fold; transactivation in the C285A mutant [3]: did not show the transactivation; luciferase transcription activity after withdrawal of ligand [4]: sustained transcription activity 24 h after withdrawal
CCOC(=O)CCc1ccc(Oc2cccc(NC(=O)c3cc([N+](=O)[O-])ccc3Cl)c2)cc1 [Compound 4e, Ethyl 3-{4-[3-(2-chloro-5-nitrobenzamido)phenoxy]phenyl}propanoate]	–	–	2.54 ± 1.3	–
CCOC(=O)/C=C/c1ccc(Oc2ccc(NC(=O)c3cc([N+](=O)[O-])ccc3Cl)cc2)cc1 [Compound 4d, (E)-Ethyl 3-{4-[4-(2-chloro-5-nitrobenzamido)phenoxy]phenyl}acrylate]	completely abolished; also recorded: exhibited no agonistic activity	showed the decrease of fluorescence	–	–
O=C(Nc1ccccc1)c1cc([N+](=O)[O-])ccc1Cl [GW9662]	–	decreased	–	–
CCOC(=O)/C=C/c1ccc(OCCc2cccc(NC(=O)c3cc([N+](=O)[O-])ccc3Cl)c2)cc1 [Compound 3]	–	–	–	EC50 [6]: 14 nM
